Article PMC9154192 (PLoS Biology, 2022)
Converted amounts (≈) assume the structure as drawn. “And” between values parts separate entries of the source, which are not always exact repeats. Equal entries are not always repeated. Where two headings read alike, the source gives them in different places.

Assays:
in vitro = format: cell-based; conditions: human
Method: A549 human pulmonary epithelial cells (KCLB 10185), human embryonic kidney (HEK) 293 cells (KCLB 21573), human THP-1 leukemia cells (KCLB 40202), human neuroblastoma SH-SY5Y cells (KCLB 22266), Murine Raw 264.7 macrophages (KCLB 40071), and L929 murine fibroblasts (KCLB 10001) were purchased from the KCLB (Seoul, Korea). Cytotoxicity testing was performed using the MTT assay and the WST-1 cell viability assay as previously described.

M. heraklionease = assay: microbe, parasite or virus in culture; format: cell-based; conditions: Mycobacterium
M. avium = assay: microbe, parasite or virus in culture; format: cell-based; conditions: Mycobacterium avium
M. aubagnense = assay: microbe, parasite or virus in culture; format: cell-based, Mycobacterium aubagnense; conditions: Mycolicibacterium aubagnense
M. neoaurum = assay: microbe, parasite or virus in culture; format: cell-based, Mycobacterium neoaurum; conditions: Mycolicibacterium neoaurum
M. conceptionense = assay: microbe, parasite or virus in culture; format: cell-based, Mycobacterium conceptionense; conditions: Mycolicibacterium senegalense
M. colombiense = assay: microbe, parasite or virus in culture; format: cell-based; conditions: Mycobacterium colombiense
XDR M. tuberculosis = assay: Luminescence-based microbial cell viability assay; set-up: species or system Mycobacterium tuberculosis
[1] = test system: XDR M. tuberculosis (KMRC 00203–00197); format: cell-based, Mycobacterium tuberculosis; conditions: for log reduction (CFU): 7 days
M. bovis = assay: microbe, parasite or virus in culture; format: cell-based; conditions: Mycobacterium tuberculosis variant bovis
M. tuberculosis H37Rv = format: cell-based, Mycobacterium tuberculosis; conditions: for CFU/ml (average) / Intracellular M. tuberculosis, % (Drug Free = 100.0) / CFU/ml, single values: H37Rv
M. gordonae = assay: microbe, parasite or virus in culture; format: cell-based; conditions: Mycobacterium gordonae
intestinal microbiome = assay: Gut microbiome, 16s rRNA gene-based metagenomics analysis of feces; format: in vivo, BALB/c mice; conditions: 30 mg/kg oral once a day for 7 days, BALB/c mice, feces
Method: Six-week-old BALB/c female mice were used for this study (6 mice for each group). Each drug was administered orally at 30 mg/kg once daily for 7 days. Stool was collected, and 16 rRNA gene-based metagenomics analysis was performed. Corn oil was used as the vehicle. The drug-free group received corn oil only. This animal experiment was conducted with the approval of the IACUC of the Soonchunhyang University (approval number: SCH21-0011). Microbiome analysis of collected feces was carried out as previously described with some modifications. Total DNA was extracted from the stool using the QIAamp DNA stool mini kit (Qiagen, Germany) after mechanical disruption using lysing matrix B tubes (MP Biomedicals, USA). V4 region of 16S RNA gene was amplified from extracted DNA with the following primers: forward primer ([…]) and reverse primer ([…]). PCR was performed using the Kappa HiFi hot start kit (KAPA Biosystems, USA) for 16s gene amplification and library preparation. A dsDNA HS assay kit and Qubit 4 fluorimeter (Invitrogen, USA) were used for DNA quantification. After each step, quality was checked using Agilent High Sensitivity DNA Kit and Agilent Bioanalyzer 2100 (Agilent Technologies, USA). Clean-up was performed using AMPure XP beads (Beckman Coulter, UK). The metagenomic library was prepared using a Nextera XT DNA Library Prep Kit (Illumina, USA) and loaded into an iSeq-100 reagent cartridge (Illumina, USA) together with a PhiX Control library (Illumina, USA). A 300-bp paired-end sequencing was performed on an iSeq-100 platform (Illumina, USA). Sequencing data were analyzed using the EzBioCloud server (Chunlab, Korea).

M. phocaicum = assay: microbe, parasite or virus in culture; format: cell-based, Mycobacterium phocaicum; conditions: Mycolicibacterium phocaicum
M. kansasii = assay: microbe, parasite or virus in culture; format: cell-based; conditions: Mycobacterium kansasii
Shigella flexneri = assay: Broth dilution MIC (CLSI); format: cell-based; conditions: read-out: MIC
Shigella boydii = assay: Broth dilution MIC (CLSI); format: cell-based; conditions: read-out: MIC
Serratia marcescens = assay: Broth dilution MIC (CLSI); format: cell-based; conditions: read-out: MIC
Acinetobacter baumannii = assay: Broth dilution MIC (CLSI); format: cell-based; conditions: read-out: MIC
Shigella sonnei = assay: Broth dilution MIC (CLSI); format: cell-based; conditions: read-out: MIC
[2] = test system: Staphylococcus aureus, MSSA; assay: Broth dilution MIC (CLSI); format: cell-based; conditions: read-out: MIC
[3] = test system: Staphylococcus epidermidis; assay: Broth dilution MIC (CLSI); format: cell-based; conditions: read-out: MIC

NNC(=O)c1ccncc1 [INH, isoniazid, reference compound]
CC50 (in vitro; A549): > 500 µg/mL
CC50 (in vitro; HEK-293): > 500 µg/mL
CC50 (in vitro; SH-SY5Y): > 500 µg/mL
CC50 (in vitro; THP-1): > 500 µg/mL
MIC (M. heraklionease): > 100 µg/mL
MIC (M. avium): 25 µg/mL (≈ 182 µM)
MIC (M. aubagnense): > 100 µg/mL
MIC (M. neoaurum): 3.1 µg/mL (≈ 22.6 µM)
MIC (M. conceptionense): 25 µg/mL (≈ 182 µM)
MIC (M. colombiense): 12.5 µg/mL (≈ 91.1 µM)
RLU/50ul (replicates1-3), single values (XDR M. tuberculosis): 190 RLU/50ul and 260 RLU/50ul (2×) and 250 RLU/50ul and 280 RLU/50ul and 160 RLU/50ul (2×) and 150 RLU/50ul and 170 RLU/50ul and 540 RLU/50ul (2×) and 630 RLU/50ul (2×) and 530 RLU/50ul and 620 RLU/50ul and 670 RLU/50ul (2×) and 580 RLU/50ul and 690 RLU/50ul and 830 RLU/50ul (2×) and 790 RLU/50ul and 800 RLU/50ul and 880 RLU/50ul and 870 RLU/50ul and 750 RLU/50ul (2×)
antitubercular effect (XDR M. tuberculosis): did not show a significant antitubercular effect
CFU (replicates1-3), single values [1]: 6900 CFU and 40600 CFU and 43800 CFU and 52100 CFU and 37500 CFU and 35600 CFU and 31700 CFU and 15100 CFU and 27000 CFU and 106000 CFU and 157000 CFU and 148000 CFU and 98000 CFU and 61800 CFU and 75500 CFU and 71000 CFU and 87000 CFU and 97000 CFU
log reduction (CFU) ([1]; at 12.5 μg/ml): 1.0
MIC (M. bovis): 0.2 µg/mL (≈ 1.46 µM)
CFU/ml (average) (M. tuberculosis H37Rv; Fig 3A, drug conc. 12.5): 2420 CFU/ml
Intracellular M. tuberculosis, % (Drug Free = 100.0) (M. tuberculosis H37Rv; Fig 3A, drug conc. 12.5): 7.2%
CFU/ml (average) (M. tuberculosis H37Rv; Fig 3A, drug conc. 25): 203 CFU/ml
Intracellular M. tuberculosis, % (Drug Free = 100.0) (M. tuberculosis H37Rv; Fig 3A, drug conc. 25): 0.6%
CFU/ml (average) (M. tuberculosis H37Rv; Fig 3B, drug conc. 12.5): 2120 CFU/ml
Intracellular M. tuberculosis, % (Drug Free = 100.0) (M. tuberculosis H37Rv; Fig 3B, drug conc. 12.5): 6.3%
CFU/ml (average) (M. tuberculosis H37Rv; Fig 3B, drug conc. 25): 133 CFU/ml
Intracellular M. tuberculosis, % (Drug Free = 100.0) (M. tuberculosis H37Rv; Fig 3B, drug conc. 25): 0.4%
MIC (M. gordonae): > 100 µg/mL
beta set-significance analysis, pair-wise comparison of gut microbiome (intestinal microbiome): not significant
difference in phylum or class level taxa compared to drug-free group (intestinal microbiome): did not significantly differ
phylogenetic diversity compared to drug-free control group (intestinal microbiome): no significant change
MIC (M. phocaicum): > 100 µg/mL
MIC (M. kansasii): 0.2 µg/mL (≈ 1.46 µM)
MIC (Shigella flexneri): > 100 µg/mL
MIC (Shigella boydii): > 100 µg/mL
MIC (Serratia marcescens): > 100 µg/mL
MIC (Acinetobacter baumannii): > 100 µg/mL
MIC (Shigella sonnei): > 100 µg/mL
MIC [2]: > 100 µg/mL
MIC [3]: > 100 µg/mL

CCCCOc1ccc2cc(CN3C(=O)CC[C@H]3C(=O)OC)c3cc(OC)c(OC)cc3c2c1 [PP2S, Methyl (S)-1-((3-butoxy-6,7-dimethoxyphenanthren-9-yl)methyl)-5-oxopyrrolidine-2-carboxylate]
CC50 (in vitro; A549): > 500 µg/mL
CC50 (in vitro; HEK-293): > 500 µg/mL
CC50 (in vitro; SH-SY5Y): > 500 µg/mL
CC50 (in vitro; THP-1): > 500 µg/mL
MIC (M. heraklionease): > 100 µg/mL
MIC (M. avium): > 100 µg/mL
MIC (M. aubagnense): > 100 µg/mL
MIC (M. neoaurum): > 100 µg/mL
MIC (M. conceptionense): > 100 µg/mL
MIC (M. colombiense): > 100 µg/mL
RLU/50ul (replicates1-3), single values (XDR M. tuberculosis): 50 RLU/50ul and 140 RLU/50ul and 80 RLU/50ul and 90 RLU/50ul (2×) and 120 RLU/50ul and 70 RLU/50ul and 130 RLU/50ul and 40 RLU/50ul and 260 RLU/50ul and 290 RLU/50ul and 430 RLU/50ul and 420 RLU/50ul and 460 RLU/50ul and 330 RLU/50ul and 390 RLU/50ul and 410 RLU/50ul and 220 RLU/50ul and 640 RLU/50ul and 720 RLU/50ul and 540 RLU/50ul and 550 RLU/50ul and 580 RLU/50ul and 450 RLU/50ul (2×) and 590 RLU/50ul and 630 RLU/50ul
concentration with significant antitubercular effect (XDR M. tuberculosis): 0.39 µg/mL
CFU (log) [1]: 3.65 and 3.73
CFU (replicates1-3), single values [1]: 5500 CFU and 1100 CFU and 2900 CFU and 2700 CFU and 6500 CFU and 5100 CFU and 5400 CFU and 6100 CFU and 5320 CFU and 9100 CFU and 3200 CFU (2×) and 3600 CFU and 3300 CFU and 3400 CFU and 2100 CFU and 12800 CFU and 8170 CFU
log reduction (CFU) ([1]; at 0.8 μg/ml): 1.8
log reduction (CFU) ([1]; at 1.6 μg/ml): 1.9
MIC (M. bovis): 0.8 µg/mL (≈ 1.72 µM)
CFU/ml (average) (M. tuberculosis H37Rv; Fig 3B, drug conc. 1.6): 26807 CFU/ml
CFU/ml, single values (M. tuberculosis H37Rv; Fig 3B, drug conc. 1.6): 23800 CFU/ml and 25500 CFU/ml and 31120 CFU/ml
Intracellular M. tuberculosis, % (Drug Free = 100.0) (M. tuberculosis H37Rv; Fig 3B, drug conc. 1.6): 79.7%
CFU/ml (average) (M. tuberculosis H37Rv; Fig 3B, drug conc. 3.1): 22130 CFU/ml
CFU/ml, single values (M. tuberculosis H37Rv; Fig 3B, drug conc. 3.1): 17950 CFU/ml and 21400 CFU/ml and 27040 CFU/ml
Intracellular M. tuberculosis, % (Drug Free = 100.0) (M. tuberculosis H37Rv; Fig 3B, drug conc. 3.1): 65.8%
CFU/ml (average) (M. tuberculosis H37Rv; Fig 3B, drug conc. 6.3): 12950 CFU/ml
Intracellular M. tuberculosis, % (Drug Free = 100.0) (M. tuberculosis H37Rv; Fig 3B, drug conc. 6.3): 38.5%
CFU/ml (average) (M. tuberculosis H37Rv; Fig 3B, drug conc. 12.5): 7367 CFU/ml
Intracellular M. tuberculosis, % (Drug Free = 100.0) (M. tuberculosis H37Rv; Fig 3B, drug conc. 12.5): 21.9%
CFU/ml (average) (M. tuberculosis H37Rv; Fig 3B, drug conc. 25): 640 CFU/ml
Intracellular M. tuberculosis, % (Drug Free = 100.0) (M. tuberculosis H37Rv; Fig 3B, drug conc. 25): 1.9%
growth of M. tuberculosis in macrophages (CFU) (M. tuberculosis H37Rv; H37Rv in Raw 264.7 cells, 3 days, concentration-dependent): significantly inhibited the growth
MIC (M. gordonae): > 100 µg/mL
beta set-significance analysis, pair-wise comparison of gut microbiome (intestinal microbiome): not significant
difference in phylum or class level taxa compared to drug-free group (intestinal microbiome): did not significantly differ
phylogenetic diversity compared to drug-free control group (intestinal microbiome): no significant change
MIC (M. phocaicum): > 100 µg/mL
MIC (M. kansasii): > 100 µg/mL
MIC (Shigella flexneri): > 100 µg/mL
MIC (Shigella boydii): > 100 µg/mL
MIC (Serratia marcescens): > 100 µg/mL
MIC (Acinetobacter baumannii): > 100 µg/mL
MIC (Shigella sonnei): > 100 µg/mL
MIC [2]: > 100 µg/mL
MIC [3]: > 100 µg/mL
